Assay results from patent US20240116951A1, “HETEROCYCLIC COMPOUNDS AND USES THEREOF” (Kumquat Biosciences Inc., priority 2022, published 2024).
pIC50: −log10 of the molar value.

Tests used:
Assay type in all cases: binding
[1] = target: T1, KRAS G12D (Homo sapiens, UniProt P01116, G12D); assay: HTRF assay of K-Ras G12D interaction with SOS1 (PPI-HTRF); settings: HTRF, 5 nM KRAS G12D; read-out: PPI-HTRF-5 nM KRAS G12D
T1 construct: made in house; host or cells: E. coli, e.g. BL21 (DE3)
Summary of the method: (§1)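 Read-out: HTRF ratio 665/620 nm (ex 337 nm) after ~10 min or longer. Donor anti-GST-Eu(K) on GST-K-Ras and acceptor anti-6His-XL665 on His-hSOS1, in HEPES pH 7.4 buffer with DTT, BSA and Igepal. Duplicate dilution series from 10 μM down to 0.01 μM gave IC50 values.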

[2] = target: T2, KRAS G12S (Homo sapiens, UniProt P01116, G12S); assay: HTRF assay of K-Ras G12S interaction with SOS1 (PPI-HTRF); settings: 5 nM KRAS G12S, read-out: PPI-HTRF-5 nM KRAS G12S
T2 construct: made in house; host or cells: E. coli, e.g. BL21 (DE3)
Summary of the method: as §1

[3] = target: T3, KRAS WT (Homo sapiens, UniProt P01116); assay: HTRF assay of wildtype K-Ras interaction with SOS1 (PPI-HTRF); settings: HTRF, 5 nM KRAS WT; read-out: PPI-HTRF-5 nM KRAS WT
T3 construct: made in house; host or cells: E. coli, e.g. BL21 (DE3)
Summary of the method: as §1

T1 sequence (P01116 1-188 isoform P01116-2 G12D): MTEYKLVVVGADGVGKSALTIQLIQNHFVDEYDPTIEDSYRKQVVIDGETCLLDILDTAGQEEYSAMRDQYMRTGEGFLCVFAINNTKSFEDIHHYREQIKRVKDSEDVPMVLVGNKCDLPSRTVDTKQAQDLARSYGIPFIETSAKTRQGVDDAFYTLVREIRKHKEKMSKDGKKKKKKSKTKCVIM
T3 sequence (P01116 1-188 isoform P01116-2): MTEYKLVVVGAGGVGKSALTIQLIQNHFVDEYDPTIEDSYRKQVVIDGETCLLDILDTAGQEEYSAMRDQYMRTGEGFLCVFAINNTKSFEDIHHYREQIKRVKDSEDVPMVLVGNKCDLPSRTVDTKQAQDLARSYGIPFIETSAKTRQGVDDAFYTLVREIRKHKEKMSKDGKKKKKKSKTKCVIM
T2 sequence (P01116 1-188 isoform P01116-2 G12S): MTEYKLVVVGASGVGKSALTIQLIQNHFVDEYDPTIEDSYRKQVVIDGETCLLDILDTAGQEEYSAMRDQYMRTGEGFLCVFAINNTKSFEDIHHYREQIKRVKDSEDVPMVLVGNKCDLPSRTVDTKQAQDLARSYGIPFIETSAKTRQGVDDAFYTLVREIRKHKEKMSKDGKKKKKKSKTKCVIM

Row | SMILES | pIC50 [1] | pIC50 [2] | pIC50 [3]
1 | C[C@H]1N(c2nc(OC[C@@]34CCCN3C[C@H](F)C4)nc3c(F)c(-c4ccc(F)c5sc(N)c(C#N)c45)c(Cl)cc23)CC[C@@]12CCN2C(=O)n1cnc(C(F)F)n1 [Compound 325, 2-amino-4-(6-chloro-4-((4R,5R)-1-(3-(difluoromethyl)-1H-1,2,4-triazole-1-carbonyl)-5-methyl-1,6-diazaspiro[3.4]octan-6-yl)-8-fluoro-2-(((2R,7aS)-2-fluorotetrahydro-1H-pyrrolizin-7a(5H)-yl)methoxy)quinazolin-7-yl)-7-fluorobenzo[b]thiophene-3-carbonitrile] | > 5.30 | > 5.30 | > 5.30
2 | Nc1nc2c(-c3c(Cl)cc4c(N5CCC6(CCN6)CC5)nc(OC[C@@]56CCCN5C[C@H](F)C6)nc4c3F)ccc(F)c2s1 [Compound 265, 4-(6-chloro-8-fluoro-2-(((2R,7aS)-2-fluorotetrahydro-1H-pyrrolizin-7a(5H)-yl)methoxy)-4-(1,7-diazaspiro[3.5]nonan-7-yl)quinazolin-7-yl)-7-fluorobenzo[d]thiazol-2-amine] | > 5.30 | < 5.30 | > 5.30
3 | N#CCC1CN(c2nc(OC[C@@]34CCCN3C[C@H](F)C4)nc3c(F)c(-c4ccc(F)c5sc(N)c(C#N)c45)c(Cl)cc23)CC12CCN2C(=O)n1cnc(Cl)n1 (stereo partly drawn) [Compound 328, 2-amino-4-(6-chloro-4-(1-(3-chloro-1H-1,2,4-triazole-1-carbonyl)-8-(cyanomethyl)-1,6-diazaspiro[3.4]octan-6-yl)-8-fluoro-2-(((2R,7aS)-2-fluorotetrahydro-1H-pyrrolizin-7a(5H)-yl)methoxy)quinazolin-7-yl)-7-fluorobenzo[b]thiophene-3-carbonitrile] | > 5.30 | > 5.30 | > 5.30
4 | N#Cc1ncn(C(=O)N2CC[C@@]23CCN(c2nc(OC[C@@]45CCCN4C[C@H](F)C5)nc4c(F)c(-c5ccc(F)c6sc(N)c(C#N)c56)c(Cl)cc24)C3)n1 [Compound 321, 1-((4R)-6-(7-(2-amino-3-cyano-7-fluorobenzo[b]thiophen-4-yl)-6-chloro-8-fluoro-2-(((2R,7aS)-2-fluorotetrahydro-1H-pyrrolizin-7a(5H)-yl)methoxy)quinazolin-4-yl)-1,6-diazaspiro[3.4]octane-1-carbonyl)-1H-1,2,4-triazole-3-carbonitrile] | > 5.30 | > 5.30 | > 5.30
5 | Nc1nc2c(-c3c(Cl)cc4c(N5CCCC6(CC5)CCN6C=O)nc(OC[C@@]56CCCN5C[C@H](F)C6)nc4c3F)ccc(F)c2s1 (stereo partly drawn) [Compound 233, 7-(7-(2-amino-7-fluorobenzo[d]thiazol-4-yl)-6-chloro-8-fluoro-2-(((2R,7aS)-2-fluorotetrahydro-1H-pyrrolizin-7a(5H)-yl)methoxy)quinazolin-4-yl)-1,7-diazaspiro[3.6]decane-1-carbaldehyde] | > 5.30 | > 5.30 | > 5.30
6 | N#Cc1c(N)sc2c(F)ccc(-c3c(Cl)cc4c(N5CCC6(CCN6C(=O)n6nc(C7CC7)nc6Cl)C5)nc(OC[C@@]56CCCN5C[C@H](F)C6)nc4c3F)c12 (stereo partly drawn) [Compound 288, 2-amino-4-(6-chloro-4-(1-(5-chloro-3-cyclopropyl-1H-1,2,4-triazole-1-carbonyl)-1,6-diazaspiro[3.4]octan-6-yl)-8-fluoro-2-(((2R,7aS)-2-fluorotetrahydro-1H-pyrrolizin-7a(5H)-yl)methoxy)quinazolin-7-yl)-7-fluorobenzo[b]thiophene-3-carbonitrile] | > 5.30 | > 5.30 | > 5.30
7 | N#Cc1c(N)sc2c(F)ccc(-c3c(Cl)cc4c(N5CC[C@@]6(CCN6C(=O)n6cnc(C(F)F)n6)C5)nc(OC[C@@]56CCCN5C[C@H](F)C6)nc4c3F)c12 (atropisomer, axis not shown; (aS)) [Compound 278, 2-amino-4-((R)-6-chloro-4-((R)-1-(3-(difluoromethyl)-1H-1,2,4-triazole-1-carbonyl)-1,6-diazaspiro[3.4]octan-6-yl)-8-fluoro-2-(((2R,7aS)-2-fluorotetrahydro-1H-pyrrolizin-7a(5H)-yl)methoxy)quinazolin-7-yl)-7-fluorobenzo[b]thiophene-3-carbonitrile] | > 5.30 | > 5.30 | > 5.30
8 | N#Cc1c(N)sc2c(F)ccc(-c3c(Cl)cc4c(N5CCC6(CCN6C(=O)n6cncn6)C5)nc(OC[C@@]56CCCN5C[C@H](F)C6)nc4c3F)c12 (stereo partly drawn) [Compound 221, (4R)-4-(4-(1-(1H-1,2,4-triazole-1-carbonyl)-1,6-diazaspiro[3.4]octan-6-yl)-6-chloro-8-fluoro-2-(((2R,7aS)-2-fluorotetrahydro-1H-pyrrolizin-7a(5H)-yl)methoxy)quinazolin-7-yl)-2-amino-7-fluorobenzo[b]thiophene-3-carbonitrile] | > 5.30 | > 5.30 | > 5.30

Next, values leading:

Row | pIC50 [1] | pIC50 [2] | pIC50 [3] | SMILES
9 | > 5.30 | > 5.30 | > 5.30 | Nc1nc2c(-c3c(Cl)cc4c(N5CCCC6(CCCN6)C5)nc(OC[C@@]56CCCN5C[C@H](F)C6)nc4c3F)ccc(F)c2s1 (stereo partly drawn) [Compound 219, 4-(6-chloro-8-fluoro-2-(((2R,7aS)-2-fluorotetrahydro-1H-pyrrolizin-7a(5H)-yl)methoxy)-4-(1,7-diazaspiro[4.5]decan-7-yl)quinazolin-7-yl)-7-fluorobenzo[d]thiazol-2-amine]
10 | > 5.30 | > 5.30 | > 5.30 | N#Cc1c(N)sc2c(F)ccc(-c3c(Cl)cc4c(N5CCCC6(CCN6)C5)nc(OC[C@@]56CCCN5C[C@H](F)C6)nc4c3F)c12 (stereo partly drawn) [Compound 236, 2-amino-4-(6-chloro-8-fluoro-2-(((2R,7aS)-2-fluorotetrahydro-1H-pyrrolizin-7a(5H)-yl)methoxy)-4-(1,6-diazaspiro[3.5]nonan-6-yl)quinazolin-7-yl)-7-fluorobenzo[b]thiophene-3-carbonitrile]
11 | > 5.30 | > 5.30 | > 5.30 | C#Cc1c(F)ccc2cc(O)cc(-c3ccc4c(N5CCC6(CCN6C(=O)n6cncn6)C5)nc(OC[C@@]56CCCN5C[C@H](F)C6)nc4c3F)c12 (stereo partly drawn) [Compound 277, (6-(7-(8-ethynyl-7-fluoro-3-hydroxynaphthalen-1-yl)-8-fluoro-2-(((2R,7aS)-2-fluorotetrahydro-1H-pyrrolizin-7a(5H)-yl)methoxy)quinazolin-4-yl)-1,6-diazaspiro[3.4]octan-1-yl)(1H-1,2,4-triazol-1-yl)methanone]
12 | > 5.30 | > 5.30 | > 5.30 | C[C@H](Oc1nc(N2CCC3(CCN3)C2)c2cc(Cl)c(-c3ccc(F)c4sc(N)c(C#N)c34)c(F)c2n1)[C@@H]1CCCN1C (stereo partly drawn) [Compound 213, 2-amino-4-(6-chloro-8-fluoro-2-((S)-1-((S)-1-methylpyrrolidin-2-yl)ethoxy)-4-(1,6-diazaspiro[3.4]octan-6-yl)quinazolin-7-yl)-7-fluorobenzo[b]thiophene-3-carbonitrile]
13 | < 5.30 | > 5.30 | > 5.30 | C#Cc1c(F)ccc2cc(O)cc(-c3ncc4c(N5CCC6(CCN6)C5)nc(O[C@@H](C)[C@@H]5CCCN5C)nc4c3F)c12 (stereo partly drawn) [Compound 239, 5-ethynyl-6-fluoro-4-(8-fluoro-2-((S)-1-((S)-1-methylpyrrolidin-2-yl)ethoxy)-4-(1,6-diazaspiro[3.4]octan-6-yl)pyrido[4,3-d]pyrimidin-7-yl)naphthalen-2-ol]
